From ChEMBL document CHEMBL4052703, “Cyclic tetrapeptide HDAC inhibitors as potential therapeutics for spinal muscular atrophy: Screening with iPSC-derived neuronal cells” (Bioorg Med Chem Lett, 2017)
pIC50: −log10 of the molar value. Calls of active or inactive are those of the source. The rule behind the calls is not given here. Square brackets hold non-standard residues; d marks the D form. Peptide text beside a SMILES is read from it. * marks the point of attachment. 1Nal = N[C@@H](Cc1cccc2ccccc12)C(=O)O; Asu = N[C@@H](CCCCCC(=O)O)C(=O)O; β3hL = CC(C)C[C@H](N)CC(=O)O; Nva = CCC[C@H](N)C(=O)O; NHOH = ON*

Tests used:
Histone deacetylase 2 = Histone deacetylase 2 (Homo sapiens, UniProt Q92769); assay: Inhibition of HDAC2 (unknown origin)
Homo sapiens [1] = species: Homo sapiens; assay: Increase in SMN2 mRNA expression in induced pluripotent stem cell derived from human GM03813 cells isolated from SMA patient homozygous for deletion of exons 7 and 8 in SMN1 gene and containing 3 SMN2 gene copies at 1 uM by PCR assay relative to untreated control
Homo sapiens [2] = species: Homo sapiens; assay: Increase in SMN2 mRNA expression in induced pluripotent stem cell derived from human GM03813 cells isolated from SMA patient homozygous for deletion of exons 7 and 8 in SMN1 gene and containing 3 SMN2 gene copies at 0.1 uM by PCR assay relative to untreated control
Homo sapiens [3] = species: Homo sapiens; assay: Increase in […] in induced pluripotent stem cell derived from human GM03813 cells isolated from SMA patient homozygous for deletion of exons 7 and 8 in SMN1 gene and containing 3 SMN2 gene copies assessed as increase in SMN protein aggregates (Gems) at 5 uM incubated for 48 hrs by confocal microscopy
[4] = Toxicity against induced pluripotent stem cell derived from human GM03813 cells isolated from SMA patient homozygous for deletion of exons 7 and 8 in SMN1 gene and containing 3 SMN2 gene copies assessed as reduction in SMN2 protein level at 10 uM; type: cell-based; settings: induced pluripotent stem cell-derived neuron
[5] = biological target: T1, Protein deacetylase HDAC6 (Homo sapiens, UniProt Q9UBN7); assay: Inhibition of HDAC6 (unknown origin)
T1 sequence (Q9UBN7 whole entry): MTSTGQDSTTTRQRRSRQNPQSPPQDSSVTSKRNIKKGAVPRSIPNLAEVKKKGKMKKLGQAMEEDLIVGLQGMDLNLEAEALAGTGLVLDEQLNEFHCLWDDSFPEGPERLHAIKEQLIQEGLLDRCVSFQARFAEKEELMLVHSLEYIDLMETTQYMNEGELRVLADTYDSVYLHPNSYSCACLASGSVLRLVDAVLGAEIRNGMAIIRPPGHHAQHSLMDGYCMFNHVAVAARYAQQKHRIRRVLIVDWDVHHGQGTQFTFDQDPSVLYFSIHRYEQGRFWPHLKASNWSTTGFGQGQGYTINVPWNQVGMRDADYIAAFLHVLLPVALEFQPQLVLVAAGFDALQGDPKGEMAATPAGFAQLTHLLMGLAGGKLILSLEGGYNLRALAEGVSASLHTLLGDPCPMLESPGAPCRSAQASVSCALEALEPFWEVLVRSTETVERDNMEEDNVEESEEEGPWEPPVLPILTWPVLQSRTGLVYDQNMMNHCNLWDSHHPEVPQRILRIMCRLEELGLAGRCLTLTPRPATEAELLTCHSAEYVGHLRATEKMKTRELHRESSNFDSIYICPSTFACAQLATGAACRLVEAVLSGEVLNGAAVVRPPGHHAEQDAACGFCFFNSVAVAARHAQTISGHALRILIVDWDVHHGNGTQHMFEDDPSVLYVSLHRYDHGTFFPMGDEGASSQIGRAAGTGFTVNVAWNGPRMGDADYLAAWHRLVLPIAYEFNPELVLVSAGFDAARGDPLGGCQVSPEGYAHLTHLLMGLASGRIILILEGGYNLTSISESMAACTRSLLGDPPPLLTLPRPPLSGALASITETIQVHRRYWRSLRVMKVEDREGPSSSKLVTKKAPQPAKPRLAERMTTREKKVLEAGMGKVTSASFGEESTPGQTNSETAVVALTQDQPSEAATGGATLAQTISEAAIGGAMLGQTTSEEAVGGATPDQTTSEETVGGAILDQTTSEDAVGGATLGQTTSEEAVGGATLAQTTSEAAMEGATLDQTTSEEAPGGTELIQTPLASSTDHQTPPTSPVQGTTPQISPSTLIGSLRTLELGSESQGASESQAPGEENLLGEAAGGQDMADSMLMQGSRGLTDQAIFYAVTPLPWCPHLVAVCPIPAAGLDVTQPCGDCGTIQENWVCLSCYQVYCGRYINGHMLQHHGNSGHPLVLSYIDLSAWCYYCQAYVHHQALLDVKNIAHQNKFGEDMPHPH

Homo sapiens [6] = species: Homo sapiens; assay: Increase in SMN2 mRNA expression in induced pluripotent stem cell derived from human GM03813 cells isolated from SMA patient homozygous for deletion of exons 7 and 8 in SMN1 gene and containing 3 SMN2 gene copies at 0.1 to 5 uM by PCR assay relative to untreated control
Histone deacetylase 3 = Histone deacetylase 3 (Homo sapiens, UniProt O15379); assay: Inhibition of HDAC3 (unknown origin)
Histone deacetylase 8 = biological target: T2, Histone deacetylase 8 (Homo sapiens, UniProt Q9BY41); assay: Inhibition of HDAC8 (unknown origin)
T2 sequence (Q9BY41 whole entry): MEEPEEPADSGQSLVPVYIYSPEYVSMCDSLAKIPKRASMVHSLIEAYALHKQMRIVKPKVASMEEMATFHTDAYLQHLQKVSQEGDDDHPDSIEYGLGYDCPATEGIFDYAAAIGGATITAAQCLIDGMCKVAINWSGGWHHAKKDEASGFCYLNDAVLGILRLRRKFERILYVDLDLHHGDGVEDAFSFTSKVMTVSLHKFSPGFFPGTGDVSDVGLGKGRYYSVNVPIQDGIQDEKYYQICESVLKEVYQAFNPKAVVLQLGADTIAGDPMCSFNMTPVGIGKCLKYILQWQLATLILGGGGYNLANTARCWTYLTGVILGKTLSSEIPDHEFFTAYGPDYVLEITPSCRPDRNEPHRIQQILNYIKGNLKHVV

Sequence of Histone deacetylase 2 (Q92769 whole entry): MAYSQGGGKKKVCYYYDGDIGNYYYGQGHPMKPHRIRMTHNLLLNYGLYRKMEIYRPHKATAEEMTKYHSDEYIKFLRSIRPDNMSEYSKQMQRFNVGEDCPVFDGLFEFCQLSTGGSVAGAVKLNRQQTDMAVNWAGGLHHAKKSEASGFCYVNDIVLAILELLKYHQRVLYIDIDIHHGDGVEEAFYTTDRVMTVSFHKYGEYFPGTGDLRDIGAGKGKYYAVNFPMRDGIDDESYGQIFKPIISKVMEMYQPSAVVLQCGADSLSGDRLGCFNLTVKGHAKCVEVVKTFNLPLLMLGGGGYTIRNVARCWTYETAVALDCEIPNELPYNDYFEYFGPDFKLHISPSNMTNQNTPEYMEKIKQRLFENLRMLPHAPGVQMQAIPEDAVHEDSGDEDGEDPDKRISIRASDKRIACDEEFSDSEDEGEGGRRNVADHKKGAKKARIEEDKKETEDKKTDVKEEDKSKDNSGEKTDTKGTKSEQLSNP
Sequence of Histone deacetylase 3 (O15379 whole entry): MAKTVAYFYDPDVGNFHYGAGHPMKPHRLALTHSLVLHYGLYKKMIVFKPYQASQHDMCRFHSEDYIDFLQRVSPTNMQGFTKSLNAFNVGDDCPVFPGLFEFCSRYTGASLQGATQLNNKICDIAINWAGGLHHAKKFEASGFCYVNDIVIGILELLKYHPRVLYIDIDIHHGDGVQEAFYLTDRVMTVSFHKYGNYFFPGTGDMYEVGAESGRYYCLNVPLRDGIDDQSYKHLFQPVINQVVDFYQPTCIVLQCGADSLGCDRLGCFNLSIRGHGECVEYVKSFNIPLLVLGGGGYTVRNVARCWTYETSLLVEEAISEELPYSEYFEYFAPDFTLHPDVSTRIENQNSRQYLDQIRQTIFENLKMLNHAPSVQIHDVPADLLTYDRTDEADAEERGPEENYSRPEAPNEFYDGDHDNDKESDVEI

SMILES | pIC50 (Histone deacetylase 2) | fold change (FC) (Homo sapiens [1]) | fold change (FC) (Homo sapiens [2]) | also measured
CC(C)C[C@H]1CC(=O)N[C@@H](C)C(=O)N[C@@H](CCCCCC(=O)NO)C(=O)N[C@@H](Cc2c[nH]c3ccccc23)C(=O)N1 (cyclo([Asu](NHOH)W[β3hL]A)) | 8.30 | 2 to 3 | 1.4 to 2.2 | 
CCC(=O)CCCCC[C@@H]1NC(=O)[C@H](CCCCNC(C)=O)NC(=O)C[C@H](CC(C)C)NC(=O)[C@H](Cc2c[nH]c3ccccc23)NC1=O |  | 2.7 to 3.2 | 1 to 1.5 | Activity (Homo sapiens [3]): Active; Activity [4]: Toxic; pIC50 [5]: < 5.00; Activity (Homo sapiens [6]): Dose-dependent effect
CC(C)C[C@H]1CC(=O)N[C@@H](C)C(=O)N[C@@H](CCCCCC(=O)O)C(=O)N[C@@H](Cc2cccc3ccccc23)C(=O)N1 (cyclo([Asu][1Nal][β3hL]A)) |  | 1.4 to 1.5 | 1.1 to 1.6 | 
CC(C)C[C@H]1CC(=O)N[C@@H](CCCCN)C(=O)N[C@@H](CCCCCC(=O)O)C(=O)N[C@@H](Cc2cccc3ccccc23)C(=O)N1 (cyclo([Asu][1Nal][β3hL]K)) |  | 0.6 to 1.1 | 1 | 
CCC[C@@H]1NC(=O)[C@H](C)NC(=O)C[C@H](CC(C)C)NC(=O)[C@H](Cc2cn(CN(C)C)c3ccccc23)NC1=O |  | 1.5 to 1.8 |  | 

Second part, led by results:

pIC50 (Histone deacetylase 2) | fold change (FC) (Homo sapiens [1]) | fold change (FC) (Homo sapiens [2]) | SMILES | also measured
5.80 | 0.7 to 0.8 |  | CCC[C@@H]1NC(=O)[C@H](C)NC(=O)C[C@H](CC(C)C)NC(=O)[C@H](Cc2c[nH]c3ccccc23)NC1=O (cyclo(A[Nva]W[β3hL])) | pIC50 (Histone deacetylase 3): 5.84
7.49 | 2.1 to 2.4 | 1.2 to 1.3 | CC(C)C[C@H]1CC(=O)N[C@@H](C)C(=O)N[C@@H](CCCCCC(=O)C(F)(F)F)C(=O)N[C@@H](Cc2c[nH]c3ccccc23)C(=O)N1 | pIC50 [5]: 5.55
 | 2.7 to 3.6 | 1 to 1.5 | CC(C)C[C@H]1CC(=O)N[C@@H](Cc2ccccc2)C(=O)N[C@@H](CCCCCC(=O)NO)C(=O)N[C@@H](Cc2c[nH]c3ccccc23)C(=O)N1 (cyclo([Asu](NHOH)W[β3hL]F)) | 
 | 0.8 to 1.4 | 0.6 to 1 | CCC(=O)CCCCC[C@@H]1NC(=O)[C@H](Cc2ccccc2)NC(=O)C[C@H](CC(C)C)NC(=O)[C@H](Cc2c[nH]c3ccccc23)NC1=O | 
 | 0.9 to 1.1 | 0.9 | CCC(=O)CCCCC[C@@H]1NC(=O)[C@@H](C)n2nncc2[C@H](CC(C)C)NC(=O)[C@H](Cc2c[nH]c3ccccc23)NC1=O | pIC50 (Histone deacetylase 8): 6.96
 | 0.6 to 0.8 |  | CCC(=O)CCCCC[C@@H]1NC(=O)[C@H](C)NC(=O)C[C@H](CC(C)C)NC(=O)[C@H](Cc2cccc3ccccc23)NC1=O | 
7.40 | 1.2 to 2 | 1 to 1.4 | CCC(=O)CCCCC[C@@H]1NC(=O)[C@@H]2CCCN2C(=O)C[C@H](CC(C)C)NC(=O)[C@H](Cc2c[nH]c3ccccc23)NC1=O | pIC50 (Histone deacetylase 8): 5.82
